# Assay results as given in patent US20250162973A1, “METHODS OF SYNTHESIS AND USES OF AGRIMOL COMPOUNDS” (Versitech Limited, priority 2022, published 2025).
# Where two headings read alike, the source gives them in different places.
# Key:
# [1] = test system: human cancer cell lines (MDA-MB-231, MCF-7, HepG2, HeLa, AGS, HCT116, SW480, SUNE-1, H460, HCC827, H1650, A549); assay: MTT cell viability assay, panel of human cancer cell lines; format: cell-based; settings: Homo sapiens
# Procedure: SUNE1 (nasopharyngeal carcinoma), AGS (gastric adenocarcinoma), HeLa (cervix adenocarcinoma), HepG2 (hepatocellular carcinoma), U-87 MG (human glioblastoma cell), U2OS (osteosarcoma), MCF-7 (breast adenocarcinoma), MDA-MB-231 (breast adenocarcinoma), HCT116 (colorectal carcinoma), SW480 (colorectal adenocarcinoma), NCI-H460 (large cell lung carcinoma), NCI-H1650 (adenocarcinoma lung carcinoma), HCC827 (adenocarcinoma lung carcinoma), A549 (lung carcinoma), and CCD-19Lu (human lung fibroblast normal cell) were all obtained from American Type Culture Collection (ATCC, Manassas, VA, USA). Minimum Essential Media (MEM, Gibco®, ThermoFisher Scientific), Dulbecco's Modified Eagle Medium (DMEM, Gibco®, ThermoFisher Scientific), and RPMI-1640 Medium (Gibco®, ThermoFisher Scientific) supplemented with 10% Fetal Bovine Serum (Gibco®, ThermoFisher Scientific), and 100 U/mL penicillin-streptomycin (Gibco™, ThermoFisher Scientific) were used for cell culture. Cells were placed into an incubator with 5% CO2 that temperature was set at 37° C. For subculturing cells, 0.05% Trypsin-EDTA (Gibco®) was used for detaching and a subcultivation ratio of 1:5 was used.
# The cell viability assay was performed by a typical MTT assay. Briefly, 5*10^3 cells were seeded in the 96-well flat bottom plate and allowed to attach overnight. After drug treatment with a serial dilution from 100 μM for 48 h, 10 μL of MTT solution (5 mg/ml prepared in PBS, filtered) was added into each well and incubate for 4 h at 37° C. The formed formazan was then dissolved with SDS solution (10% SDS in 10 mM HCl) and followed the determination of absorbance at 590 nm by a microplate reader. The change in cell viability was then calculated for each drug concentration, then normalized to control. Dose response curves from each assay were fit to a Boltzmann sigmoidal function (GraphPad Prism8, version8.0.0). The cytotoxicity of AGB and its derivatives was determined by the calculation of IC50 value (half maximal inhibitory concentration) from fitted curves, which was the concentration of drug induced 50% cell viability.
# [2] = Safety in xenograft mice (body weight, H&E staining); format: in vivo
# Procedure: In vivo anticancer efficacy of AGB was evaluated using the human tumor xenograft model, in which human cancer cells were inoculated into immune-deficiency mice. Briefly, twelve six-week-old (16-18 g) BALB/c nude mice were randomly divided into two groups and both received subcutaneous injection of NCI-H460 cells (2 million cells in 0.1 mL PBS) at its right flank of mice and tumor became palpable after three days of injection. Mice were received intravenous (i.v.) injections of AGB or vehicle control (10% DMSO and 0.05% Tween 80 in normal saline) every two days in two weeks. The length and width of tumor were measured by Vernier caliper and the body weight was monitored every two or three days. At the end of experiment, mice were sacrificed and decapitated. The liver, kidney, and tumor were collected and fixed in 4% formaldehyde for further haematoxylin and eosin (H&E) staining. All animal experiments in this project received human care and study protocols complied with the guidelines of the Laboratory Animal Services Centre of the University of Hong Kong. Tumor sizes and body weight were recorded before the drug injection every time and tumor volume (V) was calculated by the formula V=LW^2/2, where L is tumor length and W is tumor width. The relative tumor volume that normalized to day 0 was used to monitor the tumor growth. Data in each group was shown as mean±standard deviation.
# The in vivo antitumor potential of AGB using the xenograft mouse model was assessed. Two different cancer cells (NCI-H460 and A549) were inoculated subcutaneously into the nude mice. Non-obese diabetic severe combined immunodeficient (NOD/SCID) mice were used for stem-like NCI-H460 cells. The mice were then treated by tail intravenous injection with vehicle or AGB (3 mg/kg). […] To further evaluate the safety of AGB, hematoxylin-eosin (H&E) staining of the kidney, liver, and tumor samples were performed (FIG. 1K). The necrotic area (circled by dashed line) in the tumor tissue from mice treated with AGB was much larger than that in vehicle group.
# NCI-H460 cells = assay: Wound healing assay (cell migration); format: cell-based, human
# Procedure: For wound healing assay in the present study, the cells were grown to approximately 80% confluence in 12-well plates in the complete growth medium and then a straight line was scraped at the central part of the each well by a 200 μL pipette tip. […] […] Each condition was performed in triplicate.
# [3] = Hematological examination in MTD test; format: in vivo; settings: 12.8 mg/kg, day 14
# Procedure: The MTD test in this study was done in collaboration with Tianjin Institute of Pharmaceutical Research (TIPR). […] A total of 80 mice were randomly assigned into four groups (10 male and 10 female mice in each group) in this study. Four groups included 16.0 mg/kg of AGB group, 12.8 mg/kg of AGB group, vehicle control group (10% DMSO+0.8% Tween-80 in normal saline), and the blank control group (normal saline).
# Then, the body weights of surviving animals were measured on the 1st, 3rd, 7th and 14th days, respectively. At the end of experiment, the hematology, blood biochemistry, anatomical examination, and histopathology examination were performed in both vehicle control group and the MTD group (12.8 mg/kg). The data were presented as the mean±standard deviation.
smiles,measurement,setting,value
"CCCC(=O)c1c(O)c(Cc2c(O)c(Cc3c(O)c(C)c(OC)c(C(=O)CCC)c3O)c(O)c(C(=O)[C@@H](C)CC)c2O)c(O)c(C)c1OC [AGB, Agrimol B]",IC50,"[1]; 48-h treatment, range over tested cancer cell lines, read-out: IC50 values for the tested cancer cell lines",1.83 to 5.81 µM
same,IC50,"[1]; MTT assay, cancer cells, read-out: IC50 values against cancer cells",< 10 µM
same,observable toxicity (body weight of mice),[2]; 3 mg/kg of AGB,did not show any observable toxicity
same,liver and kidney histology (H&E),[2]; after treatment with AGB,did not show any obvious change
same,necrotic area in the tumor tissue vs vehicle group (H&E),[2]; mice treated with AGB,much larger
same,width of the scratch wound,NCI-H460 cells; 1 μM of AGB,significantly decreased
same,wound closure,"NCI-H460 cells; 4 μM or 10 μM of AGB, 16 h and 32 h",wound closure was inhibited
same,concentration giving significant reduction of cell migration,NCI-H460 cells; wound healing assay,around 4 μM
same,E (eosinophils),[3],0.29 ± 0.11 ×10^9/L
same,E(%),[3],5.48 ± 1.64%
same,HCT,[3],47.54 ± 2.21%
same,HGB,[3],138.20 ± 9.38 g/L
same,L (lymphocytes),[3],4.22 ± 1.32 ×10^9/L
same,L(%),[3],77.53 ± 2.05%
same,M (monocytes),[3],0.09 ± 0.03 ×10^9/L
same,M(%),[3],1.64 ± 0.46%
same,MCH,[3],15.20 ± 0.97 pg
same,MCHC,[3],291.00 ± 20.17 g/L
same,MCV,[3],52.25 ± 2.16 fL
same,N (neutrophils),[3],0.78 ± 0.28 ×10^9/L
same,N(%),[3],14.24 ± 2.15%
same,PLT,[3],1733.80 ± 371.53 ×10^9/L
same,RBC,[3],9.11 ± 0.45 ×10^12/L
same,Ret,[3],0.81 ± 0.09 ×10^12/L
same,Ret(%),[3],8.83 ± 0.74%
same,WBC,[3],5.44 ± 1.66 ×10^9/L
